Assay results published in patent EP4714939A1, “SULFONAMIDE COMPOUND, PREPARATION METHOD THEREFOR, AND PHARMACEUTICAL USE THEREOF” (Shenzhen Salubris Pharmaceuticals Co., Ltd., priority 2023, dated 2024).

System: Lp(a)
Experiment: In-vitro Lp(a) assembly assay (cell-free, sandwich ELISA)
Format: biochemical
Conditions: inhibition of Lp(a) formation; HepG2 and HEK293 (human Apo(a), 17 Kringle repeats) conditioned media, 37°C, 2 hours; 4-parameter curve
Procedure: The capability of the compounds in the examples inhibiting the formation of Lp(a) particles in vitro was evaluated through cell-free assembly assay. After incubation at 37°C with 5% CO2 for 96 h, conditioned media (supplemented with 10% FBS, 20 mM HEPES, and 1 × penicillin/streptomycin DMEM) was collected from confluent wild-type HepG2 cells (source of endogenously expressed ApoB) and an HEK293 stable cell line expressing human Apo(a) protein containing 17 Kringle repeats (selected on 1 ug/ml puromycin). In-vitro assembly assay was performed by combining equal parts of HepG2 and HEK293 conditioned media with compounds under test added in a dilution series (final concentration being 0.03-1000 nM). A reaction was incubated at 37°C for 2 hours, and terminated by adding 6-aminocaproic acid (EACA) to a final concentration of 150 mM. Sandwich ELISA was used to detect Lp(a) using an anti-Apo(a) capture antibody (ab242565) and an HRP-conjugated anti-ApoB detection antibody (ab27622). ELISA was performed using TMB staining, and terminated with 1N sulfuric acid, and signals were read at 450 nm on an Envision 2104 plate reader. By setting an assembly reaction without inhibitors to 0% inhibition and an assembly reaction with the minimum amount of HepG2 conditioned medium (50-fold dilution) to 100% inhibition, the % inhibition of Lp(a) formed under each test condition was determined. Table 1 IC90 values of sulfonamide compounds

Row | IC90 [nM] | SMILES
1 | 86.7 | O=C(O)[C@@H](Cc1cccc(S(=O)(=O)N(CCc2ccccc2C[C@H](C(=O)O)[C@H]2CCNC2)Cc2cc(C[C@H](C(=O)O)[C@H]3CCNC3)ccc2F)c1)[C@H]1CCNC1 [Compound 26]
2 | 37.9 | O=C(O)[C@@H](Cc1cccc(CN(Cc2cccc(C[C@H](C(=O)O)[C@H]3CCNC3)c2F)S(=O)(=O)c2cccc(C[C@H](C(=O)O)[C@H]3CCNC3)c2)c1)[C@H]1CCNC1 [Compound 5]
3 | 79.6 | O=C(O)[C@@H](Cc1cccc(S(=O)(=O)N(CCc2ccccc2C[C@H](C(=O)O)[C@H]2CCNC2)Cc2cc(C[C@H](C(=O)O)[C@H]3CCNC3)c(F)cc2F)c1)[C@H]1CCNC1 [Compound 27]
4 | 26.1 | O=C(O)C(Cc1cccc(CN(Cc2cccc(CC(C(=O)O)C3CCNC3)c2)S(=O)(=O)c2cccc(CC(C(=O)O)C3CCNC3)c2F)c1)C1CCNC1 [Compound 8, (2S,2'S)-3,3'(3-(S)-2-carboxyl-2-(R)-pyrrolid-3-yl)ethyl)-2-fluorophenyl sulfonyl)azadiyl)dimethylenyl)bis(3,1-phenylenyl)bis(2-(R)-pyrrolid-3-yl)propanoic acid)]
5 | 41.3 | O=C(O)C(Cc1cccc(CN(Cc2cccc(CC(C(=O)O)C3CCNC3)c2)S(=O)(=O)c2ccc(Cl)c(CC(C(=O)O)C3CCNC3)c2)c1)C1CCNC1 [Compound 35, (2S,2'S)-3,3'-(((((3-((S)-2-carboxyl-2-((R)-pyrrolid-3-yl)ethyl)-4-chlorophenyl)sulfonyl)azadiyl)bis(methylenyl))bis(3,1-phenylenyl))bis(2-((R)-pyrrolid-3-yl)propanoic acid)]
6 | 40.3 | O=C(O)[C@@H](Cc1cccc(CN(Cc2cc(C[C@H](C(=O)O)[C@H]3CCNC3)ccc2F)S(=O)(=O)c2cccc(C[C@H](C(=O)O)[C@H]3CCNC3)c2)c1)[C@H]1CCNC1 [Compound 4]
7 | 31.4 | O=C(O)[C@@H](Cc1cccc(CN(Cc2c(F)ccc(C[C@H](C(=O)O)[C@H]3CCNC3)c2F)S(=O)(=O)c2cccc(C[C@H](C(=O)O)[C@H]3CCNC3)c2)c1)[C@H]1CCNC1 [Compound 32]
8 | 15.7 | O=C(O)C(Cc1cccc(S(=O)(=O)N(Cc2ccc(Cl)c(CC(C(=O)O)C3CCNC3)c2)Cc2ccc(Cl)c(CC(C(=O)O)C3CCNC3)c2)c1)C1CCNC1 [Compound 40, (2S,2'S)-3,3'-(3-((S)-2-carboxyl-2-((R)-pyrrolid-3-yl)ethyl)phenyl)sulfonyl)azadiyl)dimethylenyl)bis(6-chloro-3,1-phenylenyl)bis(2-(R)-pyrrolid-3-yl)propanoic acid)]
9 | 47.8 | O=C(O)[C@@H](Cc1cccc(CN(Cc2cccc(C[C@H](C(=O)O)[C@H]3CCNC3)c2)S(=O)(=O)c2ccc(F)c(C[C@H](C(=O)O)[C@H]3CCNC3)c2)c1)[C@H]1CCNC1 [Compound 6]
10 | 25.1 | O=C(O)C(Cc1cc(S(=O)(=O)N(Cc2ccc(Cl)c(CC(C(=O)O)C3CCNC3)c2)Cc2ccc(Cl)c(CC(C(=O)O)C3CCNC3)c2)ccc1F)C1CCNC1 [Compound 42, (2S,2'S)-3,3'(3-((S)-2-carboxyl-2-(R)-pyrrolid-3-yl)ethyl)-4-fluorophenylsu lfonyl)azadiyl)dimethylenyl)bis(6-chloro-3,1-phenylenyl)bis(2-(R)-pyrrolid-3-yl)propanoic acid)]
11 | 24.9 | O=C(O)[C@@H](Cc1cccc(CN(Cc2ccc(Cl)c(C[C@H](C(=O)O)[C@H]3CCNC3)c2)S(=O)(=O)c2ccc(F)c(C[C@H](C(=O)O)[C@H]3CCNC3)c2)c1)[C@H]1CCNC1 [Compound 39, (S)-3-(5-(N-(3-((S)-2-carboxyl-2-((R)-pyrrolid-3-yl)ethyl)-4-chlorobenzyl)-N-(3-((S)-2-carboxyl-2-((R)-pyrrolid-3-yl)ethyl)benzyl)aminosulfonyl)-2-fluorophenyl)-2-((R)-pyrrolid-3-yl)propanoic acid]
12 | 23.8 | O=C(O)[C@@H](Cc1cccc(S(=O)(=O)N(Cc2cc(C[C@H](C(=O)O)[C@H]3CCNC3)c(F)cc2F)Cc2cc(C[C@H](C(=O)O)[C@H]3CCNC3)c(F)cc2F)c1)[C@H]1CCNC1 [Compound 16]
13 | 86.5 | O=C(O)[C@@H](Cc1cc(F)cc(CCN(Cc2cccc(C[C@H](C(=O)O)[C@H]3CCNC3)c2)S(=O)(=O)c2cccc(C[C@H](C(=O)O)[C@H]3CCNC3)c2)c1)[C@H]1CCNC1 [Compound 28]
14 | 40.9 | O=C(O)[C@@H](Cc1cccc(CCN(CCc2ccccc2C[C@H](C(=O)O)[C@H]2CCNC2)S(=O)(=O)c2cccc(C[C@H](C(=O)O)[C@H]3CCNC3)c2)c1)[C@H]1CCNC1 [Compound 19]
15 | 11.5 | O=C(O)[C@@H](Cc1cccc(S(=O)(=O)N(Cc2cc(C[C@H](C(=O)O)[C@H]3CCNC3)ccc2F)Cc2cc(C[C@H](C(=O)O)[C@H]3CCNC3)ccc2F)c1)[C@H]1CCNC1 [Compound 13]
16 | 30.7 | O=C(O)[C@@H](Cc1cccc(CCN(Cc2cccc(C[C@H](C(=O)O)[C@H]3CCNC3)c2)S(=O)(=O)c2cccc(C[C@H](C(=O)O)[C@H]3CCNC3)c2)c1)[C@H]1CCNC1 [Compound 20]
17 | 33.9 | O=C(O)C(Cc1cccc(CCN(CCc2cccc(CC(C(=O)O)C3CCNC3)c2)S(=O)(=O)c2cccc(CC(C(=O)O)C3CCNC3)c2)c1)C1CCNC1 [Compound 21, (2S,2'S)-3,3'(3-((S)-2-carboxyl-2-((R)-pyrrolid-3-yl)ethyl)phenyl)sulfonyl)azadiyl)bis(ethane-2,1-diyl))bis(3,1-phenylenyl)bis(2-(R)-pyrrolid-3-yl)propanoic acid)]
18 | 24.9 | O=C(O)C(Cc1cccc(CN(Cc2cccc(CC(C(=O)O)C3CCNC3)c2)S(=O)(=O)c2cc(CC(C(=O)O)C3CCNC3)ccc2F)c1)C1CCNC1 [Compound 29, (2S,2'S)-3,3'(5-((S)-2-carboxyl-2-(R)-pyrrolid-3-yl)ethyl)-2-fluorophenyl sulfonyl)azadiyl)dimethylenyl)bis(3,1-phenylenyl)bis(2-(R)-pyrrolid-3-yl)propanoic acid)]
19 | 21.1 | O=C(O)C(Cc1cccc(S(=O)(=O)N(Cc2c(F)ccc(CC(C(=O)O)C3CCNC3)c2F)Cc2c(F)ccc(CC(C(=O)O)C3CCNC3)c2F)c1)C1CCNC1 [Compound 31, (2S,2'S)-3,3'-((3-((S)-2-carboxyl-2-(R)-pyrrolid-3-yl)ethyl)phenyl)sulfonyl)azadiyl)bis(methylenyl))bis(2,6-difluoro-3,1-phenylenyl)bis(2-(R)-pyrrolid-3-yl)propanoic acid)]
20 | 38.1 | O=C(O)C(Cc1cccc(S(=O)(=O)N(Cc2ccc(Cl)c(CC(C(=O)O)C3CCNC3)c2)Cc2ccc(Cl)c(CC(C(=O)O)C3CCNC3)c2)c1)C1CCNC1 [Compound 41, (2S,2'S)-3,3'-(3-((S)-2-carboxyl-2-((R)-pyrrolid-3-yl)ethyl)phenyl)sulfonyl)azadiyl)dimethylenyl)bis(6-chloro-3,1-phenylenyl)bis(2-(R)-pyrrolid-3-yl)propanoic acid)]
21 | 81.8 | O=C(O)[C@@H](Cc1cccc(CCN(Cc2ccc(Cl)c(C[C@H](C(=O)O)[C@H]3CCNC3)c2)S(=O)(=O)c2cccc(C[C@H](C(=O)O)[C@H]3CCNC3)c2)c1)[C@H]1CCNC1 [Compound 38]
22 | 52.3 | O=C(O)[C@@H](Cc1cccc(CN(Cc2ccc(Cl)c(C[C@H](C(=O)O)[C@H]3CCNC3)c2)S(=O)(=O)c2cccc(C[C@H](C(=O)O)[C@H]3CCNC3)c2)c1)[C@H]1CCNC1 [Compound 10]
23 | 76.2 | O=C(O)C(Cc1cccc(CN(Cc2ccccc2CC(C(=O)O)C2CCNC2)S(=O)(=O)c2cccc(CC(C(=O)O)C3CCNC3)c2)c1)C1CCNC1 [Compound 23, (S)-3-(3-(((3-(S)-2-carboxyl-2-((R)-pyrrolid-3-yl)ethyl)-N-(2-((S)2-carboxyl-2-(R)pyrrolid-3-yl)ethyl)benzyl)phenyl)sulfonamido)methyl)phenyl)-2-((R)-pyrrolid-3-yl)propanoic acid]
24 | 29 | O=C(O)[C@@H](Cc1cccc(CN(Cc2ccc(F)c(C[C@H](C(=O)O)[C@H]3CCNC3)c2F)S(=O)(=O)c2cccc(C[C@H](C(=O)O)[C@H]3CCNC3)c2)c1)[C@H]1CCNC1 [Compound 30]
25 | 62.6 | O=C(O)[C@@H](Cc1cccc(CN(Cc2ccc(F)c(C[C@H](C(=O)O)[C@H]3CCNC3)c2)S(=O)(=O)c2cccc(C[C@H](C(=O)O)[C@H]3CCNC3)c2)c1)[C@H]1CCNC1 [Compound 2]
26 | 69.9 | O=C(O)C(Cc1cccc(CN(Cc2cccc(CC(C(=O)O)C3CCNC3)c2)S(=O)(=O)c2cc(F)cc(CC(C(=O)O)C3CCNC3)c2)c1)C1CCNC1 [Compound 7, (2S,2'S)-3,3'(3-((S)-2-carboxyl-2-(R)-pyrrolid-3-yl)ethyl)-5-fluorophenyl sulfonyl)azadiyl)dimethylenyl)bis(3,1-phenylenyl)bis(2-(R)-pyrrolid-3-yl)propanoic acid)]

Row | SMILES | IC90 [nM]
27 | O=C(O)[C@@H](Cc1cccc(S(=O)(=O)N(CCc2ccccc2C[C@H](C(=O)O)[C@H]2CCNC2)Cc2cccc(C[C@H](C(=O)O)[C@H]3CCNC3)c2F)c1)[C@H]1CCNC1 [Compound 25, (S)-3-(3-(N-(3-((S)-2-carboxyl-2-((R)-pyrrolid-3-yl)etyhl)-2-fluorobenzyl) -N-(2-(S)2-carboxyl-2-((R)-pyrrolid-3-yl)ethyl)phenethyl)aminosulfonyl)phenyl)-2-(((R)-pyrrolid-3-yl)propanoic acid] | 81.7
28 | O=C(O)[C@@H](Cc1cccc(CN(Cc2cc(C[C@H](C(=O)O)[C@H]3CCNC3)c(F)cc2F)S(=O)(=O)c2cccc(C[C@H](C(=O)O)[C@H]3CCNC3)c2)c1)[C@H]1CCNC1 [Compound 15] | 16
